Test results taken from publication PMC10141580, “Cyclic Dichalcogenides Extend the Reach of Bioreductive Prodrugs to Harness Thiol/Disulfide Oxidoreductases: Applications to seco-Duocarmycins Targeting the Thioredoxin System” (ACS Central Science, 2023).
Where two headings read alike, the source gives them in different places.

System: panel of 140 standard cancer cell lines
Experiment: ProliFiler-140 cancer cell line screen (CellTiterGlo, 72 h)
Assay type: cell-based
Experimental: Incubations were performed for 72 h before automated viability readout with CellTiterGlo (Figure 8).
End of Figure S11 (part 5 of 5): ProliFiler-140 cancer cell line screening for cytotoxicity of the prodrugs.
8-data-point dose response curves from CellTiter-Glo® viability readout.
ProliFiler-140 cell line panel part V

Structure (SMILES): COc1cccc2c1C(=O)c1c(O)c3c(c(O)c1C2=O)C[C@@](O)(C(=O)CO)C[C@@H]3O[C@H]1C[C@H](N)[C@H](O)[C@H](C)O1 [doxorubicin, reference compound]
- IC50 (Homo sapiens, NCI-H2009, NCI-H2009 (Lung), read-out: IC50 [M] (ProliFiler-140)): 1.41e-07 M
- IC50 (Homo sapiens, NCI-H2228, H2228 (Lung), read-out: IC50 [M] (ProliFiler-140)): 5.73e-08 M
- IC50 (Homo sapiens, NCI-H2286, NCI-H2286 (Lung), read-out: IC50 [M] (ProliFiler-140)): 4.4e-08 M
- IC50 (Homo sapiens, NCI-N87, NCI-N87 (Stomach), read-out: IC50 [M] (ProliFiler-140)): 2e-07 M
- IC50 (Homo sapiens, OCI-AML-3, OCI-AML3 (Blood), read-out: IC50 [M] (ProliFiler-140)): 7.6e-08 M
- IC50 (Homo sapiens, OCI-AML-5, OCI-AML5 (Blood), read-out: IC50 [M] (ProliFiler-140)): 3.1e-08 M
- IC50 (Homo sapiens, OCI-LY19, OCI-LY19 (Blood), read-out: IC50 [M] (ProliFiler-140)): 5.55e-09 M
- IC50 (Homo sapiens, OPM-2, OPM-2 (Blood), read-out: IC50 [M] (ProliFiler-140)): 2.43e-07 M
- IC50 (Homo sapiens, OVCAR-3, OVCAR-3 (Ovary), read-out: IC50 [M] (ProliFiler-140)): 3.7e-07 M
- IC50 (Homo sapiens, OVCAR-3, OVCAR-3, read-out: IC50): 3.7e-07 M
- IC50 (Homo sapiens, P31-FUJ, P31/FUJ (Blood), read-out: IC50 [M] (ProliFiler-140)): 1e-07 M
- IC50 (Homo sapiens, PANC-1, PANC-1 (Pancreas), read-out: IC50 [M] (ProliFiler-140)): 8e-07 M
- IC50 (Homo sapiens, RL95-2, RL95-2 (Endometrium), read-out: IC50 [M] (ProliFiler-140)): 1.97e-07 M
- IC50 (Homo sapiens, RPMI-8226, RPMI 8226 (Blood), read-out: IC50 [M] (ProliFiler-140)): 8.84e-08 M
- IC50 (Homo sapiens, SAOS-2, Saos-2 EC (Bone), read-out: IC50 [M] (ProliFiler-140)): 2.02e-07 M
- IC50 (Homo sapiens, SCLC-21H, SCLC-21H (Lung), read-out: IC50 [M] (ProliFiler-140)): 2.91e-07 M
- IC50 (Homo sapiens, SJSA-1, SJSA-1 (Bone), read-out: IC50 [M] (ProliFiler-140)): 4.01e-07 M
- IC50 (Homo sapiens, SK-BR-3, SK-BR-3 (Breast), read-out: IC50 [M] (ProliFiler-140)): 1.3e-07 M
- IC50 (Homo sapiens, SK-ES1, SK-ES-1 (Bone), read-out: IC50 [M] (ProliFiler-140)): 2.61e-08 M
- IC50 (Homo sapiens, SK-LU-1, SK-LU-1 (Lung), read-out: IC50 [M] (ProliFiler-140)): 2.7e-07 M
- IC50 (Homo sapiens, SK-MEL3, SK-MEL-3 (Skin), read-out: IC50 [M] (ProliFiler-140)): 5.1e-07 M
- IC50 (Homo sapiens, SK-N-FI, SK-N-FI (Brain), read-out: IC50 [M] (ProliFiler-140)): 1.36e-06 M
- IC50 (Homo sapiens, SK-N-MC, SK-N-MC (Brain), read-out: IC50 [M] (ProliFiler-140)): 1.5e-08 M
- IC50 (Homo sapiens, SK-N-SH, SK-N-SH (Brain), read-out: IC50 [M] (ProliFiler-140)): 9.8e-08 M
- IC50 (Homo sapiens, SK-OV-3, SK-OV3 (Ovary), read-out: IC50 [M] (ProliFiler-140)): 1.76e-07 M
- IC50 (Homo sapiens, SNU1, SNU-1 (Stomach), read-out: IC50 [M] (ProliFiler-140)): 5.9e-08 M
- IC50 (Homo sapiens, SNU-16, SNU-16 (Stomach), read-out: IC50 [M] (ProliFiler-140)): 1.37e-07 M
- IC50 (Homo sapiens, SU-DHL-5, SU-DHL-5 (Blood), read-out: IC50 [M] (ProliFiler-140)): 9.1e-09 M
- IC50 (Homo sapiens, SW480, SW480 (Colon), read-out: IC50 [M] (ProliFiler-140)): 1.2e-07 M
- IC50 (Homo sapiens, SW948, SW948 (Colon), read-out: IC50 [M] (ProliFiler-140)): 3.46e-07 M
- IC50 (Homo sapiens, SW1783, SW-1783 (Brain), read-out: IC50 [M] (ProliFiler-140)): 2.99e-07 M
- IC50 (Homo sapiens, SW-620, SW620 (Colon), read-out: IC50 [M] (ProliFiler-140)): 3.06e-07 M
- IC50 (Homo sapiens, SiHa, SiHa (Ovary), read-out: IC50 [M] (ProliFiler-140)): 1.47e-07 M
- IC50 (Homo sapiens, T47D, T-47D (Breast), read-out: IC50 [M] (ProliFiler-140)): 4.3e-07 M
- IC50 (Homo sapiens, T98G, T98G (Brain), read-out: IC50 [M] (ProliFiler-140)): 1.17e-06 M
- IC50 (Homo sapiens, U2OS, U2OS (Bone), read-out: IC50 [M] (ProliFiler-140)): 1.14e-07 M
- IC50 (Homo sapiens, U-87 MG, U87MG (Brain), read-out: IC50 [M] (ProliFiler-140)): 1.6e-07 M
- IC50 (Homo sapiens, U-118-MG, U118MG (Brain), read-out: IC50 [M] (ProliFiler-140)): 2.57e-07 M
- IC50 (Homo sapiens, U-251, U251MG (Brain), read-out: IC50 [M] (ProliFiler-140)): 7.8e-07 M
- IC50 (Homo sapiens, U-266, U-266 (Blood), read-out: IC50 [M] (ProliFiler-140)): 1.11e-07 M
- IC50 (Homo sapiens, U-937, U-937 (Blood), read-out: IC50 [M] (ProliFiler-140)): 2.57e-08 M
- IC50 (Homo sapiens, ZR-75-1, ZR-75-1 (Breast), read-out: IC50 [M] (ProliFiler-140)): 1.35e-06 M
- IC50 (Ishikawa (Endometrium), listed as Dox, read-out: IC50 [M] (ProliFiler-140)): 7.74e-08 M
- IC50 (J82 (Bladder), read-out: IC50 [M] (ProliFiler-140)): 7.98e-07 M
- IC50 (JIMT-1 (Breast), listed as Dox, read-out: IC50 [M] (ProliFiler-140)): 1.29e-06 M
- IC50 (Jurkat (Blood), listed as Dox, read-out: IC50 [M] (ProliFiler-140)): 4e-08 M
- IC50 (K562 (Blood), listed as Dox, read-out: IC50 [M] (ProliFiler-140)): 4.42e-07 M
- IC50 (KG-1 (Blood), read-out: IC50 [M] (ProliFiler-140)): 1.21e-06 M
- IC50 (KG-1 a (Blood), listed as Dox, read-out: IC50 [M] (ProliFiler-140)): 4.9e-07 M
- IC50 (Kato III (Stomach), listed as Dox, read-out: IC50 [M] (ProliFiler-140)): 8.99e-07 M
- IC50 (LN229 (Brain), listed as Dox, read-out: IC50 [M] (ProliFiler-140)): 2.2e-07 M
- IC50 (LOU-NH91 (Lung), listed as Dox, read-out: IC50 [M] (ProliFiler-140)): 2.89e-07 M
- IC50 (LOU-NH91, LOU-NH91 (Lung), read-out: IC50 [M] (ProliFiler-140)): 2.9e-07 M
- IC50 (LP-1 (Blood), listed as Dox, read-out: IC50 [M] (ProliFiler-140)): 6.62e-07 M
- IC50 (LP-1 (Blood), read-out: IC50 [M] (ProliFiler-140)): 6.6e-07 M
- IC50 (LnCap (Prostate), listed as Dox, read-out: IC50 [M] (ProliFiler-140)): 1.92e-07 M
- IC50 (M07e (Blood), listed as Dox, read-out: IC50 [M] (ProliFiler-140)): 4.6e-08 M
- IC50 (M-07e, M07e (Blood), read-out: IC50 [M] (ProliFiler-140)): 4.63e-08 M
